This note sets out measurements from article PMC8910697, “Development of VPC-70619, a Small-Molecule N-Myc Inhibitor as a Potential Therapy for Neuroendocrine Prostate Cancer” (International Journal of Molecular Sciences, 2022).

Structures are written as SMILES.

Common to all, as to type: cell-based
For one assay, the system named is IMR32 cells. Kind of assay: Cell viability (CellTiter-Glo), IMR32. To be noted: Homo sapiens, IMR-32. The procedure:
(§1) The 54 compounds were tested at 10 µM for their inhibition of the IMR32 human neuroblastoma cell line, in which the MYCN gene is amplified and actively expressed (Table 3). HO15.19 cell line (Myc-negative) was used in parallel as a compound specificity control.
(§2) Viability of N-Myc positive (IMR32and NCI-H660) and negative (HO15.19) cells were determined using the CellTiter-Glo Luminescent Cell Viability Assay (Promega cat. G7570) (Madison, WI, USA). Cells were seeded into a 96-well white plate with a clear bottom: 10,000 cells per well for the IMR32 cells cultured in EMEM supplemented with 10% FBS, 2000 HO15.19 cells per well in Eagle’s minimum essential medium (EMEM) supplemented with 10% FBS, and 2000 cells per well for the NCI-H660 neuroendocrine cells cultured in RPMI supplemented 5% FBS, 1% Insulin-Transferrin-Selenium (Thermo Fisher, 41400-045), 10nM b-estradiol (Sigma, E8875), 10nM hydrocortisone (Sigma H0888) and 1% matrigel. Following 24 h incubation, the cells were treated with serial dilutions of the derivatives along with the respective parental compound starting at 25 μM for 72 h. Cell Titer Glo was added to each well at a ratio of 1:1 and incubated on a shaker at RT for 2 min. Luminescence and IC50 was measured with the TECAN InfiniteM200 plate reader (Männedorf, Switzerland).

The next assay concerns HO15.19 cells. Briefly: Cell viability counter-screen (CellTiter-Glo), Myc-negative HO15.19. Conditions: Rattus norvegicus, HO15.19, 10 µM; Myc-negative specificity control. The procedure:
as §1, §2
On the technique in general: The purpose of a counterscreen is to sort out artefacts and off-target activity.

The test system of assay [1] is N-Myc-Max transcription activity (LNCaP-NMYC cells). Kind of assay: Myc transcription assay (Cignal Myc reporter, luciferase) in LNCaP-NMYC cells. Conditions: LNCaP-NMYC, screened at 10 µM and 5 µM. The method, then:
To determine the optimal substitutions on the free phenyl ring, we used the active scaffold for a second substructure search against the ZINC15 database to identify a set of 181 analogues for further validation (VPC-70617 to -70799, presented in Supplementary Table S1). Compounds were tested for their inhibition of a N-Myc-Max luciferase transcription activity assay at 5 and 10 µM Figure 2a. Herein, we inspected all the proposed substitutions on the scaffold to discern the features required to construct a possible SAR model for inhibitors targeting N-Myc-Max/DBD complex (Figure 2b).
LNCaP-NMYC cells were transfected using TransIT-2020 transfection reagents per the manufacturer’s protocol. Cells were plated at a density of 10,000 cells per well of a 96-well plate. Following 24 h treatment with 5 µM or 10 µM of the compounds, the Myc reporter activity was measured using the Cignal Myc Reporter Assay Kit from Qiagen (#336841) (Hilden, Germany) per the manufacturer’s instructions.

As a reminder, the inhibition is the percentage by which the read-out fell short of the control. A lower inhibition goes with a weak effect. Consider `N#Cc1ccc(NNC(=O)c2ccc(C(F)(F)F)cc2Cl)c(C(F)(F)F)c1` [compound 70704], for which the inhibition at 10 µM was 10.6% in the assay with IMR32 cells and 13.6% with HO15.19 cells. In addition, the “transcription inhibition activity (in words)” value in assay [1] is “strong increase in inhibition activity”.
The like results for `N#Cc1ccc(NNC(=O)c2ccc(C(F)(F)F)c(Cl)c2)c(C(F)(F)F)c1` [compound 70705] were, in that order, 60.7%, 61.8% and “good inhibition at both concentrations tested”.
The corresponding values for `N#Cc1ccc(NNC(=O)c2ccc(Cl)cc2C(F)(F)F)c(C(F)(F)F)c1` [compound 70706] are 54.3%, 65.6% and “activity was maintained”.
The like results for `N#Cc1ccc(NNC(=O)c2ccc(F)c(F)c2F)c(C(F)(F)F)c1` [compound 70715] were, in that order, 14.4%, 39.9% and “strong increase in inhibition activity”.
As to `N#Cc1ccc(NNC(=O)c2c(O)cc(Cl)cc2Cl)c(C(F)(F)F)c1` [compound 70719], the inhibition at 10 µM is 95% in the assay on IMR32 cells and 76.5% in the assay with HO15.19 cells. Moreover, the “transcription inhibition activity (in words)” value in assay [1] is “recovered the inhibition activity”.
For the molecule `N#Cc1ccc(NNC(=O)c2cc(Cl)cc(C(F)(F)F)c2)c(C(F)(F)F)c1` [compound 70722], the inhibition at 10 µM with IMR32 cells is 94.7%; in the assay with HO15.19 cells, 79.3%. In assay [1], the “transcription inhibition activity (in words)” value was “very strong transcription inhibition”.
The corresponding values for `N#Cc1ccc(NNC(=O)c2ccc(F)c(I)c2)c(C(F)(F)F)c1` [compound 70726] are 75.6%, 66.2% and “strong increase in inhibition activity”.
The like results for `N#Cc1ccc(NNC(=O)c2cc(F)c(Cl)cc2Cl)c(C(F)(F)F)c1` [compound 70730] were, in that order, 87.5%, 77.1% and “recovered the inhibition activity”.
The like results for `CC(C)(c1ccc(C(=O)NNc2ccc(C#N)cc2C(F)(F)F)cc1)C(F)(F)F` [compound 70733] were, in that order, 57.4%, 57.8% and “active”.
Consider `N#Cc1ccc(NNC(=O)c2ccc(F)c(Br)c2)c(C(F)(F)F)c1` [compound 70734], for which the inhibition at 10 µM worked out at 86.5% with IMR32 cells and 77.8% in the assay on HO15.19 cells. The “transcription inhibition activity (in words)” value in assay [1] was “strong increase in inhibition activity”.
For the molecule `N#Cc1ccc(NNC(=O)c2cc(F)cc(Br)c2)c(C(F)(F)F)c1` [compound 70739], the inhibition at 10 µM in the assay with IMR32 cells was determined as 87.2%; in the assay with HO15.19 cells it was 75.8%. In assay [1], the “transcription inhibition activity (in words)” value is listed as “better inhibition activity”.
The like results for `N#Cc1ccc(NNC(=O)c2cc(F)c(Cl)cc2F)c(C(F)(F)F)c1` [compound 70741] were, in that order, 16.4%, 14.5% and “recovered the inhibition activity”.
The corresponding values for `N#Cc1ccc(NNC(=O)c2ccc(I)c(F)c2)c(C(F)(F)F)c1` [compound 70742] are 26.1%, 71.8% and “better inhibition activity”.
For `N#Cc1ccc(NNC(=O)c2ccc(Br)c(F)c2)c(C(F)(F)F)c1` [compound 70743], the values for the inhibition at 10 µM in the assay on IMR32 cells and with HO15.19 cells were 38.7% and 74.9%, respectively. For the same molecule, the “transcription inhibition activity (in words)” value in assay [1] was “strong increase in inhibition activity”.
The like results for `N#Cc1ccc(NNC(=O)c2cc(C(F)(F)F)cc(C(F)(F)F)c2)c(C(F)(F)F)c1` [compound 70756] were, in that order, 95.7%, 84.1% and “better inhibition activity”.
